Test results published in publication PMC10406626, “Structural displacement model of chitooligosaccharide transport through chitoporin” (The Journal of Biological Chemistry, 2023).
Where “and” joins values, the source holds several entries; their conditions need not be identical. Identical values can stand only once. Like-named read-outs stand apart in the source and are kept apart here.

What was measured:
[1] = test system: CymA; set-up: method as in PMID 10455198; details: cited from earlier work
[2] = test system: ScrY; set-up: method as in PMID 9691119; details: cited from earlier work
[3] = target: N-terminally truncated VhChiP (lacking the N-plug) (Vibrio campbellii (formerly Vibrio harveyi) ATCC BAA-1116); test: crystal structure; truncated VhChiP, ligand-free (C121, a single trimer per asymmetric unit) and cocrystallised with chitohexaose (P1, two trimers per asymmetric unit)
[4] = target: T1, truncated VhChiP (Vibrio campbellii, UniProt L0RVU0); test: Single-channel BLM recordings, chitohexaose titration of truncated VhChiP (without or with N-plug peptide); type: binding; details: for K (equilibrium binding constant) / koff / kon: truncated
Method: Single-channel analysis using the BLM reconstitution technique was performed as described previously ([13], [34], [35]). The lipid bilayer cuvette consisted of a 25-μm thick Teflon film sandwiched between two chambers. […] The chambers were filled with electrolyte solution and Ag/AgCl electrodes immersed on either side of the Teflon film. The electrolyte used was 1 M KCl buffered with 20 mM Hepes, pH 7.4. 1,2-diphytanoyl-sn-glycero-3-phosphatidylcholine (Avanti Polar Lipids) was used for lipid bilayer formation. To form the bilayer, the aperture was first prepainted with 1 μl of 1% (v/v) hexadecane in pentane (Sigma-Aldrich). One of the electrodes was used as the ground (cis), while the other electrode (trans) was connected to the head-stage of an Axopatch 200B amplifier (Axon Instruments). VhChiP (20–100 ng μL^−1) was added to the solution on the cis side of the lipid membrane. At applied transmembrane potentials of ±100 mV, a single channel was frequently inserted within a few minutes. The protein solution in the chamber was then gently diluted by multiple additions of the working electrolyte, to prevent multiple insertions. Single-channel current measurements were performed in the voltage-clamp mode, with the internal filter set at 10 kHz. Amplitude, probability, and single-channel analyses were performed using pClamp v.10.5 software (https://www.moleculardevices.com/products/axon-patch-clamp-system/acquisition-and-analysis-software/pclamp-software-suite) (all from Molecular Devices). […] Occlusions of ion flow caused by sugar diffusion through the inserting channel were usually recorded for 2 min. To determine the kinetics of sugar translocation on individual subunit blockages, discrete concentrations of chitohexaose (0, 0.25, 0.5, and 1.0 μM) was tested. To study channel blocking behaviors of the N-plug, the first nine amino acids (Asp^1-Lys^9) (the so-called N-plug peptide) that plugged the channel was synthesized (GenScript). Two concentrations of the peptide (10 and 40 μM) were added to either the cis or the trans side of the chamber, containing with or without 1 μM of chitohexaose on the cis side.
(§1) The equilibrium binding constant K (M^-1) was estimated from the decrease in the ion conductance in the presence of increasing concentrations of sugar using the following equation ([36]):(1) Gmax−Gc/Gmax=Imax−Ic/Imax=K[C]/(K[C]+1)
(§2) Gmax is the average conductance of the fully open VhChiP channel, and Gc is the average conductance at a given concentration [c] of chitohexaose. Imax is the initial current through the fully open channel in the absence of sugar, and Ic is the current at a particular sugar concentration. The titration experiments were also analyzed using double reciprocal plots.

[5] = target: N-plug peptide (Vibrio campbellii, UniProt L0RVU0); test: ITC, chitohexaose into synthesized N-plug peptide; type: binding; details: 25 °C
Method: (§3) ITC experiments were carried out at least three times using the MicroCal PEAQ-ITC (Malvern Instruments Ltd) at 25 ± 1 °C with a stirring speed of 500 rpm. For titration experiments, 40 μl of chitohexaose or the N-plug was titrated from a syringe into the 300 μl-calorimeter cells containing 0.05% (v/v) LDAO, 20 mM sodium phosphate buffer, pH 7.5, and protein solution. Injections (2 μl per injection) were repeated 19 times over 150-s intervals. The background was measured by injecting the corresponding ligand into the cell containing only the buffer. The ITC data were collected and analyzed using the MicroCal PEAQ-ITC analysis software (https://www.malvernpanalytical.com/en/support/product-support/software/microcal-peaq-itc-analysis-software-v141). The ITC profile obtained by injecting the corresponding ligand into the reaction cell containing buffer without VhChiP was subtracted from the […] dataset. The resultant data were fitted by a single-site binding model with the nonlinear least square algorithm.

[6] = test system: EcChiP; test: Literature single-channel analysis, EcChiP; type: binding, E. coli; details: same sugar
[7] = target: T2, VhChiP D1A mutant (Vibrio campbellii, UniProt L0RVU0, D26A); test: Single-channel BLM recordings, chitohexaose titration of D1A mutant; type: binding; details: sugar on cis side
T2 sequence (L0RVU0 26-375 D26A): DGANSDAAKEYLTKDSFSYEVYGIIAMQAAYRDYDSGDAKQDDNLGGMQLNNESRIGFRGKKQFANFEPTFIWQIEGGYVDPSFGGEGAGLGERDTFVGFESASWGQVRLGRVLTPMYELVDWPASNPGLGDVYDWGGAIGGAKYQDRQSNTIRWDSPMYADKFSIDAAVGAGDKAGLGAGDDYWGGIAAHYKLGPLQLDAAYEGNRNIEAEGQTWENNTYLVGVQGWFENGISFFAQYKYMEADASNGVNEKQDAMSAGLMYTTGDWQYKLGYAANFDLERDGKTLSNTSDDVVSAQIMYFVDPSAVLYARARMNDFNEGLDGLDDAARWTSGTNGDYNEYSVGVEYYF
Method: Single-channel analysis using the BLM reconstitution technique was performed as described previously ([13], [34], [35]). The lipid bilayer cuvette consisted of a 25-μm thick Teflon film sandwiched between two chambers. […] The chambers were filled with electrolyte solution and Ag/AgCl electrodes immersed on either side of the Teflon film. The electrolyte used was 1 M KCl buffered with 20 mM Hepes, pH 7.4. 1,2-diphytanoyl-sn-glycero-3-phosphatidylcholine (Avanti Polar Lipids) was used for lipid bilayer formation. To form the bilayer, the aperture was first prepainted with 1 μl of 1% (v/v) hexadecane in pentane (Sigma-Aldrich). One of the electrodes was used as the ground (cis), while the other electrode (trans) was connected to the head-stage of an Axopatch 200B amplifier (Axon Instruments). VhChiP (20–100 ng μL^−1) was added to the solution on the cis side of the lipid membrane. At applied transmembrane potentials of ±100 mV, a single channel was frequently inserted within a few minutes. […] Occlusions of ion flow caused by sugar diffusion through the inserting channel were usually recorded for 2 min. […]
Gmax is the average conductance of the fully open VhChiP channel, and Gc is the average conductance at a given concentration [c] of chitohexaose. […] The titration experiments were also analyzed using double reciprocal plots.

[8] = target: T1, truncated VhChiP; test: ITC, chitohexaose into truncated VhChiP; type: binding; details: 25 °C
Method: as §3

[9] = target: truncated VhChiP mixed with the N-plug peptide (Vibrio campbellii, UniProt L0RVU0); test: ITC, chitohexaose into truncated VhChiP mixed with N-plug peptide; type: binding; details: 25 °C, protein 20 μM, N-plug 5 μM
Method: as §3

[10] = target: T3, WT VhChiP (Vibrio campbellii, UniProt L0RVU0); test: Single-channel BLM recordings, chitohexaose titration of WT VhChiP; type: binding; details: no N-plug peptide
T3 sequence (L0RVU0 26-375): T2 sequence (L0RVU0 26-375 D26A)
Method: Single-channel analysis using the BLM reconstitution technique was performed as described previously ([13], [34], [35]). The lipid bilayer cuvette consisted of a 25-μm thick Teflon film sandwiched between two chambers. […] The chambers were filled with electrolyte solution and Ag/AgCl electrodes immersed on either side of the Teflon film. The electrolyte used was 1 M KCl buffered with 20 mM Hepes, pH 7.4. 1,2-diphytanoyl-sn-glycero-3-phosphatidylcholine (Avanti Polar Lipids) was used for lipid bilayer formation. To form the bilayer, the aperture was first prepainted with 1 μl of 1% (v/v) hexadecane in pentane (Sigma-Aldrich). One of the electrodes was used as the ground (cis), while the other electrode (trans) was connected to the head-stage of an Axopatch 200B amplifier (Axon Instruments). VhChiP (20–100 ng μL^−1) was added to the solution on the cis side of the lipid membrane. At applied transmembrane potentials of ±100 mV, a single channel was frequently inserted within a few minutes. The protein solution in the chamber was then gently diluted by multiple additions of the working electrolyte, to prevent multiple insertions. Single-channel current measurements were performed in the voltage-clamp mode, with the internal filter set at 10 kHz. Amplitude, probability, and single-channel analyses were performed using pClamp v.10.5 software (https://www.moleculardevices.com/products/axon-patch-clamp-system/acquisition-and-analysis-software/pclamp-software-suite) (all from Molecular Devices). To investigate sugar translocation, chitooligosaccharide was added to the cis side of the chamber at a final concentration of 5 μM. Occlusions of ion flow caused by sugar diffusion through the inserting channel were usually recorded for 2 min. To determine the kinetics of sugar translocation on individual subunit blockages, discrete concentrations of chitohexaose (0, 0.25, 0.5, and 1.0 μM) was tested. To study channel blocking behaviors of the N-plug, the first nine amino acids (Asp^1-Lys^9) (the so-called N-plug peptide) that plugged the channel was synthesized (GenScript). Two concentrations of the peptide (10 and 40 μM) were added to either the cis or the trans side of the chamber, containing with or without 1 μM of chitohexaose on the cis side.
as §1, §2

[11] = test system: EcChiP; set-up: method as in PMID 27226611, PMID 28972167; details: single-channel analysis; cited from earlier work
[12] = target: T3, WT VhChiP; test: ITC, chitohexaose into WT VhChiP; type: binding; details: 25 °C
Method: as §3

[13] = target: T2, VhChiP D1A mutant; test: ITC, chitohexaose into D1A mutant; type: binding; details: 25 °C
Method: as §3

[14] = test system: maltoporin (LamB); set-up: method as in PMID 11415317; details: cited from earlier work
[15] = sugar on cis side, N-plug peptide on trans side
[16] = sugar on cis side, no N-plug peptide
[17] = sugar on trans side, no N-plug peptide

cyclodextrin
binding constant (K) [1]: 31,300 M^−1

OC[C@H]1O[C@@](CO)(O[C@H]2O[C@H](CO)[C@@H](O)[C@H](O)[C@H]2O)[C@@H](O)[C@@H]1O [sucrose]
binding constant (K) [2]: 80 M⁻¹

N-terminally truncated VhChiP (lacking the N-plug) (domain or fragment)
stoichiometry N [3]: 3

N-plug peptide: synthesized peptide corresponding to the first nine residues (DGANSDAAK, Asp1-Lys9) of VhChiP
channel blocking events ([4]; truncated channel, no sugar, peptide at 10 and 40 μM on trans side, +100 mV, 1 M KCl, 20 mM Hepes pH 7.4): rare and short-lived blocking events

CC(=O)NC1C(O)OC(CO)C(OC2OC(CO)C(OC3OC(CO)C(OC4OC(CO)C(OC5OC(CO)C(OC6OC(CO)C(O)C(O)C6NC(C)=O)C(O)C5NC(C)=O)C(O)C4NC(C)=O)C(O)C3NC(C)=O)C(O)C2NC(C)=O)C1O (stereo not drawn) [chitohexaose]
Kd ([5]; N-plug 500 μM, no protein): 2600 ± 120 µM
n (site), stoichiometry ([5]; N-plug peptide alone): 1.0 ± 0.02
K of EcChiP less than that of VhChiP [6]: about 10 fold
K of D1A mutant less than WT channel [7]: 2.5 fold
n (site), stoichiometry [8]: 2.8 ± 0.1
Kd ([8]; one-site binding fit): 10 ± 0.3 µM
Kd [9]: 2.9 ± 0.07 µM
n (site), stoichiometry [9]: 2.3 ± 0.2
K (equilibrium binding constant) ([10]; WT, sugar on cis side): 250,000 M^−1
koff ([10]; WT, sugar on cis side): 270 ± 400 s⁻¹
τc (average residence time) ([10]; WT, sugar on cis side): 3.7 ± 0.3 ms and 3.7 ± 0.4 ms
kon ([10]; WT, sugar on cis side, 1 M KCl, 20 mM Hepes pH 7.4, +100 mV): 68 ± 1.4 × 10^6 M^−1s^−1
K (equilibrium binding constant) ([10]; WT, sugar on trans side): 240,000 M^−1
koff ([10]; WT, sugar on trans side, read-out: koff): 210 ± 500 s⁻¹
kon ([10]; WT, sugar on trans side, read-out: kon): 5e+07 ± 1.2e+06 M⁻¹ s⁻¹
kon ([10]; pH 7.4, WT, sugar on cis side, 1 M KCl, 20 mM Hepes pH 7.4, +100 mV): 5.6e+07 ± 1e+07 M⁻¹ s⁻¹
K value [11]: 50,000 M^−1
reduction in the binding affinity, truncated vs WT ([4]; from Table 2): 22.3 fold
K (equilibrium binding constant) ([4]; sugar on cis side, N-plug peptide on cis side): incalculable
K (equilibrium binding constant) [4, 15]: 255,000 M^−1
koff [4, 15]: 220 ± 10 s⁻¹
kon [4, 15]: 5.6e+07 ± 100000 M⁻¹ s⁻¹
K (equilibrium binding constant) [4, 16]: 11,000 M^−1
koff [4, 16]: 500 ± 100 s⁻¹
K (equilibrium binding constant) [4, 17]: 23,000 M^−1
koff [4, 17]: 300 ± 100 s⁻¹
kon [4, 17]: 6.8e+06 ± 500000 M⁻¹ s⁻¹
n (site), stoichiometry [12]: 3.2 ± 0.1
Kd ([12]; one-site binding fit): 0.3 ± 0.06 µM
Kd [13]: 1.2 ± 0.2 µM
n (site), stoichiometry [13]: 3.0 ± 0.1

maltohexaose
binding constant (K) [14]: 13,600 M^−1
